Experimental data as given in article PMC2614900 (Journal of the American Chemical Society, 2008).
pIC50: −log10 of the molar value.

Experiments:
[1] = test system: MT-2 lymphocytes
[2] = test system: HIV; settings: cited from earlier work
[3] = test system: noninfected H9 lymphocytes; settings: cited from earlier work
[4] = test system: IL-10; settings: at 10 μg mL^-1; cited from earlier work
[5] = test system: IL-12; settings: at 10 μg mL^-1; cited from earlier work
[6] = test system: tumor necrosis factor-α (TNFα); settings: at 10 μg mL^-1; cited from earlier work
[7] = Cytotoxicity against non-infected MT-2 lymphocytes; settings: human
[8] = test system: HIV-1; assay: Inhibition of HIV-1 replication in MT-2 lymphocytes; settings: for TI, therapeutic index (CC50/IC50): MT-2 CC50 / HIV-1 IC50

Row | Molecule | CC50 [1] [µM] | TI, therapeutic index (CC50/IC50) [8] | also measured
1 | 4-epi-hyperolactone C [compound 16] | 462 |  | 
2 | C=C[C@@]1(C)COC(=O)[C@]12O[C@]1(c3ccccc3)[C@H](C2=O)[C@H]2[C@H]([C@H](C)CCC=C(C)C)CC=C(C)[C@H]21 [2b, biyouyanagin A] |  | 7.5 | EC50, inhibition of HIV replication in H9 lymphocytes [2]: 0.798 µg/mL; EC50, noninfected H9 lymphocytes [3]: > 25 µg/mL; LPS-induced cytokine production, IL-10 [4]: 0.03; LPS-induced cytokine production, IL-12 [5]: 0.02; LPS-induced cytokine production, TNFα [6]: 0.48; CC50 [7]: 198 µM; pIC50 ([8]; Human immunodeficiency virus 1, Lymphocyte, read-out: HIV-1 IC50): 4.59
3 | Cc1cn([C@H]2C[C@H](N=[N+]=[N-])[C@@H](CO)O2)c(=O)[nH]c1=O [AZT, reference compound] | > 50 | >641 | 
4 | 24-epi-biyouyanagin A [2a] | 285 |  | 
5 | C=C[C@@]1(C)COC(=O)[C@]12OC(c1ccccc1)=CC2=O [compound 18, hyperolactone C] | 925 | 32.0 | 
